Measurements from US20080275058A1, “N-Substituted-1H-Quinoline-2,4-Diones, Preparation Method Thereof, And Pharmaceutical Composition Containing The Same” (KOREA RESEARCH INSTITUTE OF CHEMICAL TECHNOLOGY, priority 2005, published 2008).
Like-named read-outs stand apart in the source and are kept apart here.

Key:
[1] = target: T1, 5-HT7 (Homo sapiens, UniProt P34969); test: Radioligand binding, 5-HT7 ([3H]LSD); conditions: Table 4; [3H]LSD 3 nM; read-out: Binding affinity, IC50 (nM) 5-HT7
T1 construct: purchased Euroscreen/BioSignal Packard Inc
T1 sequence (P34969 whole entry): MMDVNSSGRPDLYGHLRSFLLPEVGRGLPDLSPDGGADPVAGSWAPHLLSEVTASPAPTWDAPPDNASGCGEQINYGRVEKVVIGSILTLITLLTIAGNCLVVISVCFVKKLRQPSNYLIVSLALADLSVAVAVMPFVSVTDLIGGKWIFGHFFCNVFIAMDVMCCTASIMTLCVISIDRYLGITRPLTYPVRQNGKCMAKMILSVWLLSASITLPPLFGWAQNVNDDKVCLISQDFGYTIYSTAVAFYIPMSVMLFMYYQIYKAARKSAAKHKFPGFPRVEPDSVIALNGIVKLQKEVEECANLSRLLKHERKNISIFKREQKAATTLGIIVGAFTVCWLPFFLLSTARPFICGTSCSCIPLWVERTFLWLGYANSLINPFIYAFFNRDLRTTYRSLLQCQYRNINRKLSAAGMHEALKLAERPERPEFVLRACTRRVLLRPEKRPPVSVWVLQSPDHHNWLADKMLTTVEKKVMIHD

[2] = target: T2, hD4.2 receptor (Homo sapiens, UniProt P21917, DEL265-296); test: Radioligand binding, dopamine D4 ([3H]YM-09151-2); conditions: Table 4; [3H]YM-09151-2 0.06 nM; read-out: Binding affinity, IC50 (nM) D4
T2 construct: purchased BioSignal Packard Inc., Montreal, Canada
T2 sequence (P21917 with tags, fused parts or gaps DEL265-296): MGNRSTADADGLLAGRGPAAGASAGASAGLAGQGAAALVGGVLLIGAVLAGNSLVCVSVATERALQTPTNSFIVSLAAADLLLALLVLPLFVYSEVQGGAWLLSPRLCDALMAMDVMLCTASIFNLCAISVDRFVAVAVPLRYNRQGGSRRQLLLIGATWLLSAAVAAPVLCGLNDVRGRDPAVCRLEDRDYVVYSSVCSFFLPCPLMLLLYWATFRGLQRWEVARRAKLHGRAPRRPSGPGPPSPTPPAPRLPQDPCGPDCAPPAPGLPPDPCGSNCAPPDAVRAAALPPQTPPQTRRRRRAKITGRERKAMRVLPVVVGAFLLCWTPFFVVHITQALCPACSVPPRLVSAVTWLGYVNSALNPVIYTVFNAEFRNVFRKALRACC
Outline: (§1)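 IC50 values come from nonlinear fits of three displacement experiments, each using 7-8 test concentrations in duplicate. D2L and D3 membranes were labelled with 1 nM [3H]spiperone, and D4.2 with 0.06 nM [3H]YM-09151-2. All assays used pH 7.4 Tris buffers, with the D3 buffer adding 120 mM NaCl, KCl and CaCl2.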

[3] = target: T3, 5-HT2c (Homo sapiens, UniProt P28335); test: Radioligand binding, 5-HT2c ([3H]Mesulergine); conditions: Table 4; [3H]Mesulergine 1 nM; read-out: Binding affinity, IC50 (nM) 5-HT2c
T3 construct: purchased Euroscreen/BioSignal Packard Inc
T3 sequence (P28335 33-458): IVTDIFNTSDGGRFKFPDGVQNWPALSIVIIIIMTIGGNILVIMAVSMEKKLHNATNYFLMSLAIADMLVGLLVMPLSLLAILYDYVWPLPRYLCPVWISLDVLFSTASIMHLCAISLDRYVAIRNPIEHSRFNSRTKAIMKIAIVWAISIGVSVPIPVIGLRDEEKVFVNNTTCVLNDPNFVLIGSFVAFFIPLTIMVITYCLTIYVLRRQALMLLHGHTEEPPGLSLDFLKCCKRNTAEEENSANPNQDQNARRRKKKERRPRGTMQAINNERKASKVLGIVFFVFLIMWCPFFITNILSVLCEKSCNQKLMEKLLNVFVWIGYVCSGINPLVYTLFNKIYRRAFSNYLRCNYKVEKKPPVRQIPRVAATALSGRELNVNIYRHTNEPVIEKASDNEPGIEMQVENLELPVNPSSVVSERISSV

[4] = target: T4, 5-HT2a (Homo sapiens, UniProt P28223); test: Radioligand binding, 5-HT2a ([3H]Ketanserin); conditions: Table 4; [3H]Ketanserin 1 nM; read-out: Binding affinity, IC50 (nM) 5-HT2a
T4 construct: purchased Euroscreen/BioSignal Packard Inc
T4 sequence (P28223 whole entry): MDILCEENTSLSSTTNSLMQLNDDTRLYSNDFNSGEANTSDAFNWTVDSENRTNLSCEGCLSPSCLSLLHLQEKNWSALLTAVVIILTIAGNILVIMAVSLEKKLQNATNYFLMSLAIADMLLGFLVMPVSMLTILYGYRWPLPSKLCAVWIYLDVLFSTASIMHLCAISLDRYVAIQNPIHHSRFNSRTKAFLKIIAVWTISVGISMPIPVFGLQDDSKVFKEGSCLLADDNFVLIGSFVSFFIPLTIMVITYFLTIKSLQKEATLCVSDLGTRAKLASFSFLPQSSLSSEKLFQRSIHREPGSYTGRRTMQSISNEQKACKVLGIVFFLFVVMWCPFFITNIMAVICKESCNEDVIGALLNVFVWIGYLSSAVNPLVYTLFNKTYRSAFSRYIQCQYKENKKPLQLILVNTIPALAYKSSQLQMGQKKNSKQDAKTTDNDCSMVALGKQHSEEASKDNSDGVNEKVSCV

[5] = target: T5, hD2L (Homo sapiens, UniProt P14416); test: Radioligand binding, dopamine D2 ([3H]spiperone); conditions: Table 4; [3H]spiperone 1 nM; read-out: Binding affinity, IC50 (nM) D2
T5 construct: purchased BioSignal Packard Inc., Montreal, Canada
T5 sequence (P14416 whole entry): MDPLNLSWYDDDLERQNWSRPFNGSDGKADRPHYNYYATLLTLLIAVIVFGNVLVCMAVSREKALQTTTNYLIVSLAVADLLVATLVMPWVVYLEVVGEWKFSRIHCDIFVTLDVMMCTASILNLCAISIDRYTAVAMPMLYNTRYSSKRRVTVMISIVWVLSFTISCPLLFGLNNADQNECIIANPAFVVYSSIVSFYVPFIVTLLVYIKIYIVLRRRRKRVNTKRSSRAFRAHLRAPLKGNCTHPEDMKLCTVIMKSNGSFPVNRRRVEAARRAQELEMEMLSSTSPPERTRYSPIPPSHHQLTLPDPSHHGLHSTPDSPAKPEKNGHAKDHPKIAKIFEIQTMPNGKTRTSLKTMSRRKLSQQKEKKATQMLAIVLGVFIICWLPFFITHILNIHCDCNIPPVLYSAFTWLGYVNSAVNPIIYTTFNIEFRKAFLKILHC
Outline: as §1

[6] = target: T6, hD3 (Homo sapiens, UniProt P35462); test: Radioligand binding, dopamine D3 ([3H]spiperone); conditions: Table 4; [3H]spiperone 1 nM; read-out: Binding affinity, IC50 (nM) D3
T6 construct: purchased BioSignal Packard Inc., Montreal, Canada
T6 sequence (P35462 whole entry): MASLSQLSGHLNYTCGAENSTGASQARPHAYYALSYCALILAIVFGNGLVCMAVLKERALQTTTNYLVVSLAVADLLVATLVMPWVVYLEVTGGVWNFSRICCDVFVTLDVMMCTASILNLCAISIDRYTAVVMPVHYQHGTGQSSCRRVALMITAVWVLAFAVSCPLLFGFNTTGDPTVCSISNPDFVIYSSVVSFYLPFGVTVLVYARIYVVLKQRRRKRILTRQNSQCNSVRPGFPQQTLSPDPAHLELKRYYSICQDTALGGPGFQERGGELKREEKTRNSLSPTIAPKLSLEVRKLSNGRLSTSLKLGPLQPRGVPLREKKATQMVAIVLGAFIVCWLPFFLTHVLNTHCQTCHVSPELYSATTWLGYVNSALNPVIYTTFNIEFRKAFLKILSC
Outline: as §1

[7] = Rotarod deficit in mice; assay type: in vivo, mouse; conditions: mouse, in vivo, po, unit printed as image, read-out: TD50 (median neurotoxic dose)
Description: (§2) The mouse was placed on a 1 inch diameter knurled plastic rod rotating at 6 rpm (Ugo-Basile, Milano, Italy), and the rotarod deficit (%) was obtained by counting the number of animals fallen from the rotating rod within 1 min [Dunham et al., 1957] at 60, 90 and 120 min after the injection of the compound according to the invention(200, 300 or 400 ? ). […] The compounds of the examples were suspended in 3% Tween 80 solution, and were administered (p.o.) 60 min before the testing.

[8] = test system: mice; test: Rotarod deficit in mice; assay type: in vivo, mouse
Description: as §2

[9] = target: D1 (Homo sapiens, UniProt P21728); test: Radioligand binding, dopamine D1; conditions: Table 4; read-out: Binding affinity, IC50 (nM) D1
Sequence of D1 (P21728 whole entry): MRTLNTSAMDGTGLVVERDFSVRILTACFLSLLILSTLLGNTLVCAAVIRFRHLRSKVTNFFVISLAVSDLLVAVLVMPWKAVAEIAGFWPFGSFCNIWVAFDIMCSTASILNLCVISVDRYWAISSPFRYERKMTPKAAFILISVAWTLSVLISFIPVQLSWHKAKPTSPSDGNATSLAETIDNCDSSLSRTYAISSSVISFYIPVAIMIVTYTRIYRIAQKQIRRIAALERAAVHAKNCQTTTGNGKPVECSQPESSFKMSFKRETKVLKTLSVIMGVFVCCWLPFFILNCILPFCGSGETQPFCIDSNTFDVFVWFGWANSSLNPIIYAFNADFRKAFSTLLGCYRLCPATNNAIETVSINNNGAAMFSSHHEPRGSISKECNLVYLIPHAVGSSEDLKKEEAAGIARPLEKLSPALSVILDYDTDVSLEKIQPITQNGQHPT

[10] = target: T7, 5-HT1a (Homo sapiens, UniProt P08908); test: Radioligand binding, 5-HT1a ([3H]8-OH-DPAT); conditions: Table 4; [3H]8-OH-DPAT 0.5 nM; read-out: Binding affinity, IC50 (nM) 5-HT1a
T7 construct: purchased Euroscreen/BioSignal Packard Inc
T7 sequence (P08908 1-422): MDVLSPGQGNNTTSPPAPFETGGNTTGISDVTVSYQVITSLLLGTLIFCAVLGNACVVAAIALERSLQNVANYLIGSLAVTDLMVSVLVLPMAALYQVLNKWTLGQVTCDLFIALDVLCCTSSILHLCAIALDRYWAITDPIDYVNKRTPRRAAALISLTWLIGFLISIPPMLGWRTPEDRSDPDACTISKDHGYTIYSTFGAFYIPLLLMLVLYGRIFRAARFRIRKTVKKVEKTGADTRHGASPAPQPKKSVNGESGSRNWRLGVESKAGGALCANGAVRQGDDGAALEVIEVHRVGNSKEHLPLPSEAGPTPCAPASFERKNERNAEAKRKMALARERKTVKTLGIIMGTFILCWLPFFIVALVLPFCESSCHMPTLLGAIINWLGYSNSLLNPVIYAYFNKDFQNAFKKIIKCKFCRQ
Outline: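 Supplier-recommended protocol used throughout, with purchased membrane preparations carrying each receptor as the binding source.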

[11] = target: T8, Human serotonin 5-HT6 receptor (Homo sapiens, UniProt P50406); test: [3H]LSD binding assay on cloned 5-HT6 receptor membranes; conditions: for binding affinity at 5-HT6 receptor labeled by [3H]LSD, in words: comment on Table 2
T8 construct: made in house; host or cells: insect Sf21 cells (baculovirus vector BacPAK8)
T8 sequence (P50406 whole entry): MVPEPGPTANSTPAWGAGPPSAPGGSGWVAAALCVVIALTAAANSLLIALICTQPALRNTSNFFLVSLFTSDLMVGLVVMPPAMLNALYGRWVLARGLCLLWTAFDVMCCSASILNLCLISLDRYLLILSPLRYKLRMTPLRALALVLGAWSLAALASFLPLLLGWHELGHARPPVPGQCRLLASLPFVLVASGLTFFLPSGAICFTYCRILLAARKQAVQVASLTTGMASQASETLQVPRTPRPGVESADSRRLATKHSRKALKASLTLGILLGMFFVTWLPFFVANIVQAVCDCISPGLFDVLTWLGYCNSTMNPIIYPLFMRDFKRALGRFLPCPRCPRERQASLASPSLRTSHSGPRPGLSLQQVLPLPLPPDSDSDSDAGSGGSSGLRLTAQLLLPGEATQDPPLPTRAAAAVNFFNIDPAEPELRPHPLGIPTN

[12] = Table 2, 1.87 nM [3H]LSD, 37 C, 60 min, read-out: IC50 (nM), binding affinity to the 5-HT6 receptor
[13] = Table 4, read-out: Binding affinity, IC50 (nM) 5-HT6

Row | SMILES | IC50 [1] | IC50 [2] | IC50 [3] | IC50 [4] | melting point | IC50 [5] | IC50 [6] | TD50 at 120 min [7] | Rotarod deficit (%) ([8]; 200 p.o. (dose unit not given)) | Rotarod deficit (%) ([8]; 300 p.o. (dose unit not given)) | Rotarod deficit (%) ([8]; 400 p.o. (dose unit not given)) | IC50 [9] | IC50 [10] | IC50 [11, 12] | IC50 [11, 13] | binding affinity at 5-HT6 receptor labeled by [3H]LSD, in words [11]
1 | CCNc1ccc([C@]2(C)C(=O)c3c(N4CCN(C)CC4)cc(Cl)cc3N(Cc3ccccc3)C2=O)cc1 (stereo in doubt) [Example 6, 1-Benzyl-7-chloro-3-(4-ethylamino-phenyl)-3-methyl-5-(4-methyl-piperazin-1-yl)-1H-quinoline-2,4-dione] | > 1000 nM | > 10000 nM | > 1000 nM | > 1000 nM | 153 to 155 °C | > 1000 nM | 981 nM | > 400 mg/kg | 0% | 0% | 0% | > 1000 nM | > 10000 nM | 3.4 nM | 3.4 nM | 
2 | COc1ccc(C2(C)C(=O)c3c(N4CCN(C)CC4)cc(Cl)cc3N(Cc3ccccc3)C2=O)cc1 (centres unmarked) [Example 1, 1-Benzyl-7-chloro-3-(4-methoxy-phenyl)-3-methyl-5-(4-methyl-piperazin-1yl)-1H-quinoline-2,4-dione] | 7490 nM | 8020 nM | > 10000 nM | 1120 nM | 66 to 67 °C | > 10000 nM | 2280 nM | > 400 mg/kg | 0% | 0% | 0% | 174 nM | 4410 nM | 1.9 nM | 1.9 nM | significant affinities
3 | CN1CCN(c2cc(Cl)cc3c2C(=O)C(C)(c2ccc(O)cc2)C(=O)N3Cc2cccc(N)c2)CC1 (centres unmarked) [Example 10, 1-(3-Amino-benzyl)-7-chloro-3-(4-hydroxy-phenyl)-3-methyl-5-(4-methyl-piperazin-1-yl)-1H-quinoline-2,4-dione] | > 10000 nM | > 10000 nM | > 10000 nM | > 10000 nM |  | > 10000 nM | 5370 nM | > 400 mg/kg | 0% | 0% | 0% | > 10000 nM | > 10000 nM | 6.2 nM | 6.2 nM | 
4 | COc1ccc([C@@]2(C)C(=O)c3c(N4CCNCC4)cc(Cl)cc3N(Cc3ccccc3)C2=O)cc1 [Example 13-1, (S)-1-Benzyl-7-chloro-3-(4-methoxy-phenyl)-3-methyl-5-piperazin-1-yl-1H-quinoline-2,4-dione] | 5850 nM | > 10000 nM | 7740 nM | 2510 nM |  | > 10000 nM | 8930 nM | > 400 mg/kg | 0% | 0% | 0% | 6150 nM | 5430 nM | 1.4 nM | 1.4 nM | significant affinities
5 | COc1ccc([C@]2(C)C(=O)c3c(N4CCNCC4)cc(Cl)cc3N(Cc3ccccc3)C2=O)cc1 [Example 13-2, (R)-1-Benzyl-7-chloro-3-(4-methoxy-phenyl)-3-methyl-5-piperazin-1-yl-1H-quinoline-2,4-dione] | 9520 nM | > 10000 nM | 9740 nM | 2840 nM |  | > 10000 nM | 2580 nM | > 400 mg/kg | 0% | 0% | 0% | 5210 nM | 3280 nM | 9 nM | 9 nM | 
6 | C[C@]1(c2ccc(O)cc2)C(=O)c2c(N3CCNCC3)cc(Cl)cc2N(Cc2ccccc2)C1=O [Example 14-1, (S)-1-Benzyl-7-chloro-3-(4-hydroxy-phenyl)-3-methyl-5-piperazin-1-yl-1H-quinoline-2,4-dione] | 9860 nM | > 10000 nM | > 10000 nM | 2000 nM |  | > 10000 nM | 7650 nM | > 400 mg/kg | 0% | 0% | 0% | 7070 nM | 7950 nM | 1.9 nM | 1.9 nM | significant affinities
7 | C[C@@]1(c2ccc(O)cc2)C(=O)c2c(N3CCNCC3)cc(Cl)cc2N(Cc2ccccc2)C1=O [Example 14-2, (R)-1-Benzyl-7-chloro-3-(4-hydroxy-phenyl)-3-methyl-5-piperazin-1-yl-1H-quinoline-2,4-dione] | 9240 nM | > 10000 nM | > 10000 nM | 6380 nM |  | > 10000 nM | 1760 nM | > 400 mg/kg | 0% | 0% | 0% | 1540 nM | 5890 nM | 13.3 nM | 13.3 nM | 
8 | CC1(c2ccccc2)C(=O)c2c(N3CCNCC3)cc(Cl)cc2N(Cc2ccccc2)C1=O (centres unmarked) [Example 22, 1-Benzyl-7-chloro-3-methyl-3-phenyl-5-piperazin-1-yl-1H-quinoline-2,4-dione] | 5070 nM | > 10000 nM | 1830 nM | 2900 nM |  | 2450 nM | 1810 nM | > 400 mg/kg | 0% | 0% | 0% | 5140 nM | 3910 nM | 2.7 nM | 2.3 nM | 
9 | CC1(c2cccc(O)c2)C(=O)c2c(N3CCNCC3)cc(Cl)cc2N(Cc2ccccc2)C1=O (centres unmarked) [Example 51, 1-Benzyl-7-chloro-3-(3-hydroxy-phenyl)-3-methyl-5-piperazin-1-yl-1H-quinoline-2,4-dione] | 7580 nM | 9460 nM | 8740 nM | 7550 nM | 238 to 240 °C | 8650 nM | 9880 nM |  |  |  |  | 6390 nM | 8450 nM | 6.2 nM | 20.7 nM | 
